Reference: PubChem BioAssay AID504497 (Sanford-Burnham Center for Chemical Genomics, 2011)

Biological target: Sentrin-specific protease 7 (Homo sapiens) (UniProt Q9BQF6)
Assay: SENP7 protease inhibitors, SAR follow-up, biochemical, luminescence (AID 504497)
Settings: recombinant SENP7, Z-RLRGG-aminoluciferin luminescence

Chain of Sentrin-specific protease 7 (Homo sapiens) (Q9BQF6 706-1050 limits assumed): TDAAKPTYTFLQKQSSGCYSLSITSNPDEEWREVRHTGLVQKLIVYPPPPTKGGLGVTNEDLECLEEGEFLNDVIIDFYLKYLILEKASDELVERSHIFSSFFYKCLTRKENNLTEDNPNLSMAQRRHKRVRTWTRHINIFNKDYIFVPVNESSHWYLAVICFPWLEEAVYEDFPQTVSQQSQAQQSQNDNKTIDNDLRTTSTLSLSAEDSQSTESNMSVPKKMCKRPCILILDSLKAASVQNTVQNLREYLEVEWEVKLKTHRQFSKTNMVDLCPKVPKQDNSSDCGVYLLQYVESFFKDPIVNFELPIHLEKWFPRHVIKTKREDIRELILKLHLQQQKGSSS

Work on `N#Cc1c(NC(=O)CSc2ncn[nH]2)sc2c1CCCCC2` yielded an IC50 of 5.66 µM.
